In PMC10299128, “The Parallel Structure–Activity Relationship Screening of Three Compounds Identifies the Common Agonist Pharmacophore of Pyrrolidine Bis-Cyclic Guanidine Melanocortin-3 Receptor (MC3R) Small-Molecule Ligands” (International Journal of Molecular Sciences, 2023):

What was measured:
mMC3R = mMC3R (Mus musculus, UniProt P33033); assay: AlphaScreen cAMP agonist assay, HEK293 cells stably expressing mMC3R; conditions: for mMC3R percent maximal stimulatory response (compared to NDP-MSH): at 1 mM, not enough stimulation to determine EC50; for mMC3R partial agonist efficacy bin: sigmoidal curve, efficacy <90% of NDP-MSH
mMC5R = mMC5R (Mus musculus, UniProt P41149); assay: AlphaScreen cAMP agonist assay, HEK293 cells stably expressing mMC5R; conditions: for mMC5R partial agonist efficacy bin: sigmoidal curve, efficacy <90% of NDP-MSH; for mMC5R percent maximal stimulatory response (compared to NDP-MSH): at 1 mM, not enough stimulation to determine EC50; for fold decreased mMC5R agonist potency: relative to 2718.002
mMC4R = mMC4R (Mus musculus, UniProt P56450); assay: AlphaScreen cAMP agonist assay, HEK293 cells stably expressing mMC4R; conditions: for mMC4R percent maximal stimulatory response (compared to NDP-MSH): at 1 mM, not enough stimulation to determine EC50; for mMC4R partial agonist efficacy bin: sigmoidal curve, efficacy <90% of NDP-MSH
mMC1R = mMC1R (Mus musculus, UniProt Q01727); assay: AlphaScreen cAMP agonist assay, HEK293 cells stably expressing mMC1R; conditions: for mMC1R partial agonist efficacy bin: sigmoidal curve, efficacy <90% of NDP-MSH
mMC1R, sequence (Q01727 whole entry): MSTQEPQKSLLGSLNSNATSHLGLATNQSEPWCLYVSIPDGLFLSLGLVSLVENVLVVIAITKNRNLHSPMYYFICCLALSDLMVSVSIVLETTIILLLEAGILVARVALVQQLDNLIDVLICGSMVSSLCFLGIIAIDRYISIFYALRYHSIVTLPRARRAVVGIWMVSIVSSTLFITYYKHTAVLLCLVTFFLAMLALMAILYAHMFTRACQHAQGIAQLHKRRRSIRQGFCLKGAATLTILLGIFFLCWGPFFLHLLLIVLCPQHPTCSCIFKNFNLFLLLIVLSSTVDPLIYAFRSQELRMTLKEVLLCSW

mMC4R, sequence (P56450 whole entry): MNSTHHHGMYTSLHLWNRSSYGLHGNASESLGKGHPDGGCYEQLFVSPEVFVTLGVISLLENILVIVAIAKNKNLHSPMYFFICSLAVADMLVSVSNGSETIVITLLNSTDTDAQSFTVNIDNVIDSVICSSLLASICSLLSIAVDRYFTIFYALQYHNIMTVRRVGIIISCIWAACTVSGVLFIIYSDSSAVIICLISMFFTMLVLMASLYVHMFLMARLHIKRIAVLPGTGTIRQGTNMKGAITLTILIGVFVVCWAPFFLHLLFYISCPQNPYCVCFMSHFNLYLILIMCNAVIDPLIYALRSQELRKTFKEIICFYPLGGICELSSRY
mMC3R, sequence (P33033 whole entry): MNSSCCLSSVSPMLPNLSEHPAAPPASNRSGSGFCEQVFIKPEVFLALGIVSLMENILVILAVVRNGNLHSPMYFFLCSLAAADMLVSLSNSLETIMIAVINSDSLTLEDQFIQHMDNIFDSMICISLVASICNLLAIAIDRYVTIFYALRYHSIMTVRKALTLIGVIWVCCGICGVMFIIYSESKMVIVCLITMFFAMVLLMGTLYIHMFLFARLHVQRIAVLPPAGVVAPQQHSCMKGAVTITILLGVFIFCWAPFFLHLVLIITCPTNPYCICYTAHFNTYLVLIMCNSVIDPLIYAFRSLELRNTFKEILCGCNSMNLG
mMC5R, sequence (P41149 whole entry): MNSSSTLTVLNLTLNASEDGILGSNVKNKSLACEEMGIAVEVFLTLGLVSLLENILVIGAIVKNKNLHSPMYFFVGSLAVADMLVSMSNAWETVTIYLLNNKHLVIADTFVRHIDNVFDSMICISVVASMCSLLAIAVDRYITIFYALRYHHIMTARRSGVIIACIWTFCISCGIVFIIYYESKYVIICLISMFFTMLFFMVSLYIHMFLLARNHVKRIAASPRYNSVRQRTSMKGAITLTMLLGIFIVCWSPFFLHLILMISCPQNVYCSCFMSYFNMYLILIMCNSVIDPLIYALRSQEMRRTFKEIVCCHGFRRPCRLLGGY

mMC3R percent maximal stimulatory response (compared to NDP-MSH) (mMC3R) [% @ 1 mM]	EC50 (mMC5R) [µM]	mMC5R partial agonist efficacy bin (mMC5R)	mMC4R percent maximal stimulatory response (compared to NDP-MSH) (mMC4R) [% @ 1 mM]	EC50 (mMC1R) [µM]	EC50 (mMC3R) [µM]	mMC3R partial agonist efficacy bin (mMC3R)	mMC1R partial agonist efficacy bin (mMC1R)	SMILES	other results
30	–	–	–	–	–	–	–	CC(C)C[C@@H]1CNC(=N)N1C[C@@H]1CCCN1CCN1C[C@@H]([C@H](C)O)N(CC2CCC(C(C)(C)C)CC2)C1=N (stereo partly drawn) [Compound 2718.023]	mMC5R percent maximal stimulatory response (compared to NDP-MSH) (mMC5R): 80% @ 1 mM; EC50 (mMC4R): 40 µM; mMC4R partial agonist efficacy bin (mMC4R): A (A (20–50% receptor activation)); mMC1R percent maximal stimulatory response (compared to NDP-MSH) (mMC1R; at 1 mM, not enough stimulation to determine EC50): 85% @ 1 mM
–	2.2 ± 0.7	–	50	1 ± 0.1	3.5 ± 0.2	B (B (51–90% receptor activation))	–	CC(C)C[C@@H]1CNC(=N)N1C[C@@H]1CCCN1C[C@@H](CC1CCCCC1)N1C[C@H]([C@@H](C)O)N(CC2CCC(C(C)(C)C)CC2)C1=N (stereo partly drawn) [Compound 2718.045]	fold decreased mMC5R agonist potency (mMC5R): 8 fold; fold decreased mMC1R agonist potency (mMC1R; relative to 2718.002): 4 fold
50	45	B (B (51–90% receptor activation))	55	4 ± 2	–	–	B (B (51–90% receptor activation))	CC(C)C[C@H]1CNC(=N)N1C[C@@H]1CCCN1C[C@H](Cc1ccccc1)N1C[C@@H]([C@H](C)O)N(CC2CCC(C(C)(C)C)CC2)C1=N (stereo partly drawn) [Compound 2718.039]	–
–	0.65 ± 0.08	–	–	0.39 ± 0.03	2.9 ± 0.2	B (B (51–90% receptor activation))	–	CC(C)C[C@H]1CNC(=N)N1C[C@@H]1CCCN1C[C@@H](CC1CCCCC1)N1C[C@@H]([C@H](C)O)N(CC2CCC(C(C)(C)C)CC2)C1=N (stereo partly drawn) [Compound 2718.048]	–
–	5 ± 1	–	55	1.8 ± 0.2	9 ± 1	B (B (51–90% receptor activation))	–	CC(C)C[C@@H]1CNC(=N)N1C[C@@H]1CCCN1C[C@H](CC1CCCCC1)N1C[C@@H]([C@H](C)O)N(CC2CCC(C(C)(C)C)CC2)C1=N (stereo partly drawn) [Compound 2718.046]	fold decreased mMC5R agonist potency (mMC5R): 17 fold; fold decreased mMC1R agonist potency (mMC1R; relative to 2718.002): 7 fold
–	–	–	–	11	> 1000	–	B (B (51–90% receptor activation))	CCC[C@@H]1CN([C@H](CC2CCCCC2)CN2CCC[C@H]2CN2C(=N)NC[C@H]2C(C)C)C(=N)N1 [Compound 2718.015]	mMC5R percent maximal stimulatory response (compared to NDP-MSH) (mMC5R): 35% @ 1 mM; EC50 (mMC4R): > 1000 µM
–	–	–	–	30	> 1000	–	B (B (51–90% receptor activation))	CC(C)[C@@H]1CNC(=N)N1C[C@@H]1CCCN1C[C@@H](CC1CCCCC1)N1CCNC1=N [Compound 2718.016]	–
–	0.45 ± 0.03	–	–	0.87 ± 0.07	–	–	–	CC(C)C[C@@H]1CNC(=N)N1C[C@H]1CCCN1C[C@@H](CC1CCCCC1)N1C[C@@H]([C@H](C)O)N(CC2CCC(C(C)(C)C)CC2)C1=N (stereo partly drawn) [Compound 2718.047]	EC50 (mMC4R): 3.1 ± 0.2 µM; mMC4R partial agonist efficacy bin (mMC4R): B (B (51–90% receptor activation))
–	6 ± 1	–	–	–	11	A (A (20–50% receptor activation))	–	CC(C)CC1CNC(=N)N1CC1CCCN1CC(C1CCCCC1)N1CC(C(C)O)N(CC2CCC(C(C)(C)C)CC2)C1=N (stereo not drawn) [Compound 2718.059]	fold decreased mMC5R agonist potency (mMC5R): 20 fold
–	8 ± 2	–	–	1 ± 0.2	7 ± 3	B (B (51–90% receptor activation))	–	CC(C)CC1CNC(=N)N1CC1CCCN1CC(Cc1ccc2ccccc2c1)N1CC(C(C)O)N(CC2CCC(C(C)(C)C)CC2)C1=N (stereo not drawn) [Compound 2718.055]	–

More lines, now with the values behind:

SMILES	mMC3R percent maximal stimulatory response (compared to NDP-MSH) (mMC3R) [% @ 1 mM]	EC50 (mMC5R) [µM]	mMC5R partial agonist efficacy bin (mMC5R)	mMC4R percent maximal stimulatory response (compared to NDP-MSH) (mMC4R) [% @ 1 mM]	EC50 (mMC1R) [µM]	EC50 (mMC3R) [µM]	mMC3R partial agonist efficacy bin (mMC3R)	mMC1R partial agonist efficacy bin (mMC1R)	other results
CC(C)C[C@@H]1CNC(=N)N1C[C@@H]1CCCN1C[C@H](Cc1ccccc1)N1C[C@H]([C@@H](C)O)N(CC2CCC(C(C)(C)C)CC2)C1=N (stereo partly drawn) [Compound 2718.035]	55	23	B (B (51–90% receptor activation))	55	3.7 ± 0.7	–	–	–	fold decreased mMC1R agonist potency (mMC1R; relative to 2718.001): 12 fold
CC(C)C[C@@H]1CNC(=N)N1C[C@H]1CCCN1C[C@@H](Cc1ccccc1)N1C[C@@H]([C@H](C)O)N(CC2CCC(C(C)(C)C)CC2)C1=N (stereo partly drawn) [Compound 2718.032]	–	0.6 ± 0.2	–	55	0.4 ± 0.06	1.5 ± 0.4	B (B (51–90% receptor activation))	–	–
CC(C)C[C@H]1CNC(=N)N1C[C@H]1CCCN1C[C@@H](Cc1ccccc1)N1C[C@H]([C@@H](C)O)N(CC2CCC(C(C)(C)C)CC2)C1=N (stereo partly drawn) [Compound 2718.043]	55	8 ± 2	B (B (51–90% receptor activation))	55	3.5 ± 0.2	–	–	B (B (51–90% receptor activation))	–
CC(C)C[C@H]1CNC(=N)N1C[C@@H]1CCCN1C[C@@H](Cc1ccccc1)N1C[C@H]([C@@H](C)O)N(CC2CCC(C(C)(C)C)CC2)C1=N (stereo partly drawn) [Compound 2718.037]	50	7 ± 1	B (B (51–90% receptor activation))	55	0.9 ± 0.2	–	–	B (B (51–90% receptor activation))	–
CC(C)C[C@@H]1CNC(=N)N1C[C@@H]1CCCN1C[C@@H](CC1CCCCC1)N1C[C@@H]([C@H](C)O)NC1=N [Compound 2718.011]	–	–	–	–	15	> 1000	–	B (B (51–90% receptor activation))	EC50 (mMC4R): > 1000 µM
CC(C)C[C@@H]1CNC(=N)N1C[C@@H]1CCCN1C[C@@H](Cc1ccccc1)N1C[C@H]([C@@H](C)O)N(CC2CCC(C(C)(C)C)CC2)C1=N (stereo partly drawn) [Compound 2718.030]	50	5 ± 2	B (B (51–90% receptor activation))	60	4 ± 2	–	–	B (B (51–90% receptor activation))	–
CC(C)C[C@H]1CNC(=N)N1C[C@H]1CCCN1C[C@H](CC1CCCCC1)N1C[C@H]([C@@H](C)O)N(CC2CCC(C(C)(C)C)CC2)C1=N (stereo partly drawn) [Compound 2718.049]	–	2.8 ± 0.1	–	–	8 ± 2	–	–	B (B (51–90% receptor activation))	fold decreased mMC5R agonist potency (mMC5R): 10 fold
CC(C)CC1CNC(=N)N1CC1CCCN1CC(Cc1ccc(O)cc1)N1CC(C(C)O)N(CC2CCC(C(C)(C)C)CC2)C1=N (stereo not drawn) [Compound 2718.057]	–	6 ± 2	B (B (51–90% receptor activation))	–	0.5 ± 0.1	11	B (B (51–90% receptor activation))	–	–
CC(C)CC1CNC(=N)N1CC1CCCN1CC(Cc1c[nH]c2ccccc12)N1CC(C(C)O)N(CC2CCC(C(C)(C)C)CC2)C1=N (stereo not drawn) [Compound 2718.056]	–	14	–	–	6 ± 3	–	–	B (B (51–90% receptor activation))	fold decreased mMC5R agonist potency (mMC5R): 50 fold
CC(C)C[C@@H]1CNC(=N)N1C[C@@H]1CCCN1C[C@@H](CC1CCCCC1)N1CCNC1=N [Compound 2718.012]	–	–	–	–	15	> 1000	–	B (B (51–90% receptor activation))	EC50 (mMC4R): > 1000 µM
